Source: patent US10780092B2, “Fused pyrazine derivatives useful as soluble guanylate cyclase stimulators” (Merck Sharp & Dohme Corp., priority 2016, dated 2020)

Key:
[1] = biological target: sGC α1/β1 heterodimer (Homo sapiens (Human), UniProt Q02108+Q02153); assay: Cell-based sGC functional assay (CASA assay), cGMP by HTRF; conditions: CHO-K1/sGC cells; for Emax: CHO-K1, cGMP production as percentage of maximum of compound A (set to 100%), read-out: % Activation; for EC50: inflection point of cGMP production, 4P fit, read-out: IP
Summary of the method: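 cGMP made in CHO-K1/sGC (human α1/β1) cells is read by HTRF after compound treatment for 1 hr at 37° C, following 30 min at 25° C with or without 1 μM DETA-NO; IBMX 0.5 mM present. Values are % of standard compound maximum; 4P fit.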

[2] = biological target: human recombinant sGC enzyme (Homo sapiens (Human), UniProt Q02108+Q02153); assay: SEC competition binding assay with [3H] Compound B radioligand; conditions: displacement of 1.6 nM [3H] Compound B, 24 h at 37° C.
Summary of the method: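 Competition format: [3H] Compound B (1.6 nM) displaced from human recombinant sGC over 24 h at 37° C. in triethanolamine pH 7.4 buffer with MgCl2, BSA, DTT, 300 μM DETA/NO and 400 μM GTP (1% DMSO). Gel-filtration eluates counted by liquid scintillation; 1 μM Compound B defined non-specific binding; Ki by one-site fit.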

[3] = system: hypoxia-induced pulmonary hypertension in rat; assay: Acute efficacy in hypoxia-induced pulmonary hypertension in rat following intratracheal (IT) administration; type: in vivo; conditions: decrease in SBP at dose giving decrease in PAP ≥15 mmHg
Text: Acute Efficacy in Hypoxia-Induced Pulmonary Hypertension in Rat Following Intratracheal (IT) Administration Charles River Sprague-Dawley (CD) male rats weighing approximately 350 g were implanted with HD-S21 dual pressure telemetry transmitters (Data Sciences International (DSI)) into the pulmonary artery and femoral artery. This transmitter enables simultaneous measurement of both pulmonary and systemic hemodynamic parameters in the same animal. After a 7-10 day post-operative recovery period, animals were subjected to a normobaric hypoxic (10% oxygen) environment using a Higher Peak Mountain Air Generator (MAG-10) connected to a modified rodent cage via a fitted inlet port. Oxygen (at 10%), temperature, humidity, and CO2 were controlled within normal range and animals were maintained on a 12 hour light-dark cycle with ad libitum access to food and water. After two weeks exposure to 10% O2 hypoxic environment, systolic pulmonary arterial pressure readings increased from ˜25 mmHg to greater than 50 mmHg. Using a 48 hour baseline average, animals with readings between 50-110 mmHg (standard deviation of less than 10 mmHg) and minimal changes in systolic systemic blood pressure were enrolled for study. Animals were utilized for up to 2 studies per week for 4 weeks with a minimum of 2 days washout between doses of test agent. Compound or vehicle was administered intra-tracheally under light isoflurane anesthesia (5% in oxygen; flow rate 2.0 L/min for 3 minutes). Once anesthetized, rats were placed on an angled intubation stand in supine position and the trachea visualized using a small laryngoscope. Animals then received either 0.5 mL/kg of vehicle or 0.5 mL/kg vehicle containing compound intra-tracheally delivered via microsprayer by use of a Penn-Century Microsprayer® needle 3″ (Model IA-1B-GP) attached to a 1 mL high pressure syringe (Penn Century-Model B—SYR-PL1000) (Penn-Century, Philadelphia, Pa.). The Microsprayer® tip was inserted into the trachea up to the point at which the bend in the needle is close to the tip of the snout, which positions the tip of the Microsprayer® in front of the carina (bifurcation of trachea at the bronchi). After dose delivery the animal is placed on its back in the home cage for recovery. Hemodynamic measurements were continuously recorded and readings consolidated to hourly moving averages. Each animal received a vehicle on Day 1 followed by vehicle or test agent on Day 2. Change from vehicle baseline was calculated by subtracting the hourly Day 1 vehicle response from the hourly Day 2 response and treatment group data was expressed as mean±SEM. Decreases of systolic blood pressure (SBP) and systolic pulmonary arterial pressure (PAP) were measured at a particular IT dose (mpk milligrams per kilogram) for the following Example compounds. Compounds in the Table 13 achieved a minimum decrease in PAP of ≥15 mmHg for the corresponding decrease in SBP listed.

Structure (SMILES) | Emax [1] | EC50 [1] | Ki [2] | Category (decrease in SBP) ([3]; IT dose 0.3 mpk) | Category (decrease in SBP) ([3]; IT dose 0.01 mpk)
CC1(c2ccc(F)c(O)c2)C(=O)Nc2nc(-c3cn4ccnc4c(CCC(F)(F)C(F)(F)F)n3)nc(N)c21 (racemic) [Example 115-B, 4-Amino-5-(4-fluoro-3-hydroxyphenyl)-5-methyl-2-(8-(3,3,4,4,4-pentafluorobutyl)-imidazo[1,2-a]pyrazin-6-yl)-5,7-dihydro-6H-pyrrolo[2,3-d]pyrimidin-6-one] | 79% | 63 nM | 5.03 nM | C (decrease in SBP >10 mmHg) | 
CC1(c2ccc(O)c(F)c2)C(=O)Nc2nc(-c3cn4ccnc4c(CCC(F)(F)C(F)(F)F)n3)nc(N)c21 (racemic) [Example 117-B, 4-Amino-5-(3-fluoro-4-hydroxyphenyl)-5-methyl-2-(8-(3,3,4,4,4-pentafluorobutyl)-imidazo[1,2-a]pyrazin-6-yl)-5,7-dihydro-6H-pyrrolo[2,3-d]pyrimidin-6-one] | 94% | 109 nM | 8.55 nM | C (decrease in SBP >10 mmHg) | 
CC1(c2ccc(Cl)c(O)c2)C(=O)Nc2nc(-c3cn4ccnc4c(Cc4cccc(F)c4)n3)nc(N)c21 (stereo not shown) [Example 1-A, 4-Amino-5-(4-chloro-3-hydroxyphenyl)-2-{8-[(3-fluorophenyl)methyl]imidazo[1,2-a]pyrazin-6-yl}-5-methyl-5,7-dihydro-6H-pyrrolo[2,3-d]pyrimidin-6-one] | 118% | 226 nM | 0.095 nM |  | A (decrease in SBP 0-5 mmHg)
CC1(c2cc(O)c(Cl)c(F)c2)C(=O)Nc2nc(-c3cn4ccnc4c(Cc4ccccc4F)n3)nc(N)c21 (stereo not shown) [Example 2-B, 4-Amino-5-(4-chloro-3-fluoro-5-hydroxyphenyl)-2-{8-[(2-fluorophenyl)methyl]imidazo[1,2-a]pyrazin-6-yl}-5-methyl-5,7-dihydro-6H-pyrrolo[2,3-d]pyrimidin-6-one] | 89% | 1620 nM | 0.095 nM |  | A (decrease in SBP 0-5 mmHg)
CC1(c2ccc(Cl)c(O)c2)C(=O)Nc2nc(-c3cn4c(N)cnc4c(Cc4cccc(F)c4)n3)nc(N)c21 (stereo not shown) [Example 140-A, 4-Amino-2-(3-amino-8-[(3-fluorophenyl)methyl]imidazo[1,2-a]pyrazin-6-yl)-5-(4-chloro-3-hydroxyphenyl)-5-methyl-5,7-dihydro-6H-pyrrolo[2,3-d]pyrimidin-6-one] | 101% | 816 nM | 0.827 nM |  | 
CC1(c2cc(O)c(Cl)cn2)C(=O)Nc2nc(-c3cn4ccnc4c(CC4CCCC4)n3)nc(N)c21 (stereo not shown) [Example 141-B, 4-amino-5-(5-chloro-4-hydroxypyridin-2-yl)-2-(8-(cyclopentylmethyl)-imidazo[1,2-a]pyrazin-6-yl)-5-methyl-5,7-dihydro-6H-pyrrolo-[2,3-d]pyrimidin-6-one] | 99% | 1350 nM | 0.706 nM |  | 
CC1(c2cc(O)c(C#N)c(Cl)c2)C(=O)Nc2nc(-c3cn4ccnc4c(CC4CCCCC4)n3)nc(N)c21 (stereo not shown) [Example 142-A, 4-(4-amino-2-{8-(cyclohexylmethyl)-imidazo[1,2-a]pyrazin-6-yl}-5-methyl-6-oxo-6,7-dihydro-5H-pyrrolo-[2,3-d]pyrimidin-5-yl)-2-chloro-6-hydroxy-benzonitrile] | 74% | 3530 nM | 1.14 nM |  | 
CC1(c2cc(O)c(C#N)c(Cl)c2)C(=O)Nc2nc(-c3cn4ccnc4c(Cc4ccccc4F)n3)nc(N)c21 (stereo not shown) [Example 143-A, 4-(4-amino-2-{8-(2-fluorobenzyl)imidazo-[1,2-a]pyrazin-6-yl}-5-methyl-6-oxo-6,7-dihydro-5H-pyrrolo-[2,3-d]pyrimidin-5-yl)-2-chloro-6-hydroxy-benzonitrile] | 79% | 2970 nM | 1.09 nM |  | 
CC1(c2cc(O)c(C#N)c(Cl)c2)C(=O)Nc2nc(-c3cn4ccnc4c(Cc4cccc(F)c4)n3)nc(N)c21 (stereo not shown) [Example 144-A, 4-(4-amino-2-{8-(3-fluorobenzyl)imidazo-[1,2-a]pyrazin-6-yl}-5-methyl-6-oxo-6,7-dihydro-5H-pyrrolo-[2,3-d]pyrimidin-5-yl)-2-chloro-6-hydroxy-benzonitrile] | 91% | 2680 nM | 0.333 nM |  | 
CC1(c2cc(O)c(C(F)(F)F)cn2)C(=O)Nc2nc(-c3cn4ccnc4c(Cc4cccc(F)c4)n3)nc(N)c21 (stereo not shown) [Example 145-B, 4-amino-2-(8-{3-fluorobenzyl}imidazo-[1,2-a]pyrazin-6-yl)-5-(4-hydroxy-5-(trifluoromethyl)pyridin-2-yl)-5-methyl-5,7-dihydro-6H-pyrrolo-[2,3-d]pyrimidin-6-one] | 91% | 2440 nM | 0.416 nM |  | 
CC1(c2cc(O)c(C(F)(F)F)cn2)C(=O)Nc2nc(-c3cn4ccnc4c(Cc4ccccc4F)n3)nc(N)c21 (stereo not shown) [Example 146-B, 4-amino-2-(8-{2-fluorobenzyl}imidazo-[1,2-a]pyrazin-6-yl)-5-(4-hydroxy-5-(trifluoromethyl)-pyridin-2-yl)-5-methyl-5,7-dihydro-6H-pyrrolo-[2,3-d]pyrimidin-6-one] | 96% | 2350 nM | 0.378 nM |  | 
CC1(c2cc(O)c(C(F)(F)F)cn2)C(=O)Nc2nc(-c3cn4ccnc4c(CC4CCCCC4)n3)nc(N)c21 (stereo not shown) [Example 147-B, 4-amino-2-{8-(cyclohexylmethyl)-imidazo[1,2-a]pyrazin-6-yl}-5-(4-hydroxy-5-(trifluoromethyl)pyridin-2-yl)-5-methyl-5,7-dihydro-6H-pyrrolo-[2,3-d]pyrimidin-6-one] | 102% | 1200 nM | 0.905 nM |  | 
CC1(c2cc(O)c(Cl)cn2)C(=O)Nc2nc(-c3cn4ncnc4c(Cc4ccccc4F)n3)nc(N)c21 (stereo not shown) [Example 148-B, 4-amino-5-(5-chloro-4-hydroxypyridin-2-yl)-2-{8-(2-fluorobenzyl)-[1,2,4]triazolo[1,5-a]-pyrazin-6-yl}-5-methyl-5,7-dihydro-6H-pyrrolo-[2,3-c]pyrimidin-6-one] | 105% | 242 nM | 0.261 nM |  | 
CC1(c2cc(O)c(C#N)c(Cl)c2)C(=O)Nc2nc(-c3cn4ncnc4c(Cc4ccccc4F)n3)nc(N)c21 (stereo not shown) [Example 149-A, 4-(4-amino-2-{8-(2-fluorobenzyl)-[1,2,4]-triazolo[1,5-a]pyrazin-6-yl}-5-methyl-6-oxo-6,7-dihydro-5H-pyrrolo-[2,3-d]pyrimidin-5-yl)-2-chloro-6-hydroxy-benzonitrile] | 54% | 583 nM | 0.509 nM |  | 
CC1(c2cc(O)c(C#N)c(Cl)c2)C(=O)Nc2nc(-c3cn4ncnc4c(CC4CCCCC4)n3)nc(N)c21 (stereo not shown) [Example 150-A, 4-(4-amino-2-{8-(cyclohexylmethyl)-[1,2,4]triazolo[1,5-a]-pyrazin-6-yl}-5-methyl-6-oxo-6,7-dihydro-5H-pyrrolo-[2,3-d]pyrimidin-5-yl)-2-chloro-6-hydroxy-benzonitrile] | 96% | 4120 nM | 0.989 nM |  | 
Cc1cnc(C2(C)C(=O)Nc3nc(-c4cn5ccnc5c(Cc5cccc(F)c5)n4)nc(N)c32)cc1O (stereo not shown) [Example 151-A, 4-Amino-2-{8-(3-fluorobenzyl)imidazo[1,2-a]pyrazin-6-yl}-5-(4-hydroxy-5-methylpyridin-2-yl)-5-methyl-5,7-dihydro-6H-pyrrolo[2,3-d]pyrimidin-6-one] | 84% | 1790 nM | 0.155 nM |  | 
